Assay results as given in patent US6204293A, “Inhibitors of protein isoprenyl transferases” (University of Pittsburgh, priority 1998, dated 2001).
Where a name gives a salt, the structure may show the parent alone. Read-outs that look alike come from different tables or passages of the source.

Target: T1, Rat brain protein farnesyltransferase (Rattus norvegicus, UniProt Q02293+Q04631)
T1 construct: Rat brain protein farnesyltransferase activity is measured; from tissue; host or cells: rat brain
T1 sequence (Q02293 whole entry, one chain of several): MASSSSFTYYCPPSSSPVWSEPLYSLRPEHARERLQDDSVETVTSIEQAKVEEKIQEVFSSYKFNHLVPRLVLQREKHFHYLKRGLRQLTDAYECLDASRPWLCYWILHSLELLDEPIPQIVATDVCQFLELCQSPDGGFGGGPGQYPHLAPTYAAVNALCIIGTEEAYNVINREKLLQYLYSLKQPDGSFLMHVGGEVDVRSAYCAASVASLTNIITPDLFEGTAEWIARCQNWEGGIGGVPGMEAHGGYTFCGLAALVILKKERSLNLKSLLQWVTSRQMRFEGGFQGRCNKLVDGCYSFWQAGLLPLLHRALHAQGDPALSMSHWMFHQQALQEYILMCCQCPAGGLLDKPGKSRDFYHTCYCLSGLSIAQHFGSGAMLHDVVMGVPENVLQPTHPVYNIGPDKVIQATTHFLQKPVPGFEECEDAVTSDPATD
Assay: % inhibition of farnesylation, scintillation proximity assay with biotin-K Ras B fragment
Assay type: biochemical
Settings: for inhibition at 1 µM: read-out: % inhibition at 1 × 10^-6 M; for inhibition at 0.1 µM: read-out: % inhibition at 1 × 10^-7 M; for inhibition at 0.01 µM: read-out: % inhibition at 1 × 10^-8 M
Procedure, shortened: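 Rat brain enzyme, purified through three steps, in a scintillation proximity assay kit with biotin-K Ras B fragment substrate at 0.1 mM final. Value is % inhibition of farnesylation.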

## CSCC[C@H](NC(=O)c1ccc(COCc2ccccc2C)cc1-c1ccccc1C)C(=O)O [Example 577, N-[4-(2-methylbenzyloxymethyl)-2-(2-methylphenyl)benzoyl]methionine lithium salt]
  inhibition at 1 µM: 94%

## CSCC[C@H](NC(=O)c1ccc(COCc2cccc(C)c2)cc1-c1ccccc1C)C(=O)O [Example 578, N-[4-(3-methylbenzyloxymethyl)-2-(2-methylphenyl)benzoyl]methionine lithium salt]
  inhibition at 0.1 µM: 90%

## CSCC[C@H](NC(=O)c1ccc(COCc2ccc(C)cc2)cc1-c1ccccc1C)C(=O)O [Example 579, N-[4-(4-methylbenzyloxymethyl)-2-(2-methylphenyl)benzoyl]methionine lithium salt]
  inhibition at 0.1 µM: 92%

## CSCC[C@H](NC(=O)c1ccc(COCc2ccccc2)cc1-c1ccccc1C)C(=O)NS(=O)(=O)c1ccccc1 [Example 580, Benzenesulfonyl N-2-[4-(benzyloxymethyl)-2-(2-methylphenyl)benzoyl]amino-4-methylthiobutanamide]
Table 3, 1 × 10^-7 M
  inhibition at 0.1 µM: 90%

## CSCC[C@H](NC(=O)c1ccc(COCc2ccccc2)cc1-c1ccccc1C)C(=O)NS(=O)(=O)c1ccc(Cl)cc1 [Example 581, 4-chlorobenzenesulfonyl N-2-[4-(benzyloxymethyl)-2-(2-methylphenyl)benzoyl]amino-4-methylthiobutanamide]
Table 3, 1 × 10^-7 M
  inhibition at 0.1 µM: 96%

## CSCC[C@H](NC(=O)c1ccc(COCc2ccccc2)cc1-c1ccccc1C)C(=O)NS(=O)(=O)c1ccc(C)cc1 [Example 582, 4-methylbenzenesulfonyl N-2-[4-(benzyloxymethyl)-2-(2-methylphenyl)benzoyl]amino-4-methylthiobutanamide]
Table 2, 1 × 10^-6 M
  inhibition at 1 µM: 99%

## CSCC[C@H](NC(=O)c1ccc(COCc2ccc3ccccc3c2)cc1-c1ccccc1C)C(=O)O [Example 583, N-[4-(naphth-2-ylmethoxymethyl)-2-(2-methylphenyl)benzoyl]methionine lithium salt]
  inhibition at 1 µM: 98%

## CSCC[C@H](NC(=O)c1ccc(COCc2cccc3ccccc23)cc1-c1ccccc1C)C(=O)O [Example 584, N-[4-(naphth-1-ylmethoxymethyl)-2-(2-methylphenyl)benzoyl]methionine lithium salt]
  inhibition at 0.1 µM: 96%

## CSCC[C@H](NC(=O)c1ccc(COCC2CCCCC2)cc1-c1ccccc1C)C(=O)O [Example 585, N-[4-(cyclohexylmethoxymethyl)-2-(2-methylphenyl)benzoyl]methionine lithium salt]
  inhibition at 0.1 µM: 96%

## CSCC[C@H](NC(=O)c1ccc(CSCc2ccccc2)cc1-c1ccccc1C)C(=O)NS(=O)(=O)c1ccc(C)cc1 [Example 586, 4-methylbenzenesulfonyl N-2-[4-(benzylthiomethyl)-2-(2-methylphenyl)benzoyl]amino-4-methylthiobutanamide]
Table 4, 1 × 10^-8 M
  inhibition at 0.01 µM: 90%

## CSCC[C@H](NC(=O)c1ccc(COCCc2ccccc2)cc1-c1ccccc1C)C(=O)O [Example 587, N-[4-(2-phenylethoxymethyl)-2-(2-methylphenyl)benzoyl]methionine lithium salt]
  inhibition at 1 µM: 97%

## CSCC[C@H](NC(=O)c1ccc(COCCc2ccccc2Cl)cc1-c1ccccc1C)C(=O)O [Example 588, N-[4-(2-(2-chlorophenyl)ethoxymethyl)-2-(2-methylphenyl)benzoyl]methionine lithium salt]
  inhibition at 0.01 µM: 68%

## COc1ccccc1CCOCc1ccc(C(=O)N[C@@H](CCSC)C(=O)O)c(-c2ccccc2C)c1 [Example 589, N-[4-(2-(2-methoxyphenyl)ethoxymethyl)-2-(2-methylphenyl)benzoyl]methioninelithium salt]
Table 3, 1 × 10^-7 M
  inhibition at 0.1 µM: 91%

## CSCC[C@H](NC(=O)c1ccc(COCCc2ccc(Cl)cc2)cc1-c1ccccc1C)C(=O)O [Example 590, N-[4-(2-(4-chlorophenyl)ethoxymethyl)-2-(2-methylphenyl)benzoyl]methionine lithium salt]
  inhibition at 0.1 µM: 95%
